Experimental findings from patent US9340590B2 (priority 2011, dated 2016) are described below.

Read-outs that look alike come from different tables or passages of the source. Positions of bridges follow the written chain, without caps; N, C: chain ends. Non-standard residues stand in square brackets, D forms with d. Residues, ends and D or L forms follow the SMILES beside them. Trp(1-Me) = Cn1cc(C[C@H](N)C(=O)O)c2ccccc21; 1Nal = N[C@@H](Cc1cccc2ccccc12)C(=O)O

Holding throughout (assay): cell-based
For one assay, the target named is hNav1.5 (Homo sapiens, UniProt Q14524).
The next assay concerns the target hNav1.3 (Homo sapiens, UniProt Q9NY46). The following applies: IonWorks Quattro, read-out: IWQ Use Nav1.3. (In general: In patch-clamp work, channel activity is measured electrically.)
In a further assay the target is hNav1.7 (Homo sapiens, UniProt Q15858). The class given is cell-based. The following applies: IonWorks Quattro, read-out: IWQ Use Nav1.7.
Where [1] appears, read: IonWorks Quattro, use-dependent block, hNav1.5, read-out: IWQ Use Nav1.5.

Sequence of hNav1.7 (Q15858 whole entry, looked up): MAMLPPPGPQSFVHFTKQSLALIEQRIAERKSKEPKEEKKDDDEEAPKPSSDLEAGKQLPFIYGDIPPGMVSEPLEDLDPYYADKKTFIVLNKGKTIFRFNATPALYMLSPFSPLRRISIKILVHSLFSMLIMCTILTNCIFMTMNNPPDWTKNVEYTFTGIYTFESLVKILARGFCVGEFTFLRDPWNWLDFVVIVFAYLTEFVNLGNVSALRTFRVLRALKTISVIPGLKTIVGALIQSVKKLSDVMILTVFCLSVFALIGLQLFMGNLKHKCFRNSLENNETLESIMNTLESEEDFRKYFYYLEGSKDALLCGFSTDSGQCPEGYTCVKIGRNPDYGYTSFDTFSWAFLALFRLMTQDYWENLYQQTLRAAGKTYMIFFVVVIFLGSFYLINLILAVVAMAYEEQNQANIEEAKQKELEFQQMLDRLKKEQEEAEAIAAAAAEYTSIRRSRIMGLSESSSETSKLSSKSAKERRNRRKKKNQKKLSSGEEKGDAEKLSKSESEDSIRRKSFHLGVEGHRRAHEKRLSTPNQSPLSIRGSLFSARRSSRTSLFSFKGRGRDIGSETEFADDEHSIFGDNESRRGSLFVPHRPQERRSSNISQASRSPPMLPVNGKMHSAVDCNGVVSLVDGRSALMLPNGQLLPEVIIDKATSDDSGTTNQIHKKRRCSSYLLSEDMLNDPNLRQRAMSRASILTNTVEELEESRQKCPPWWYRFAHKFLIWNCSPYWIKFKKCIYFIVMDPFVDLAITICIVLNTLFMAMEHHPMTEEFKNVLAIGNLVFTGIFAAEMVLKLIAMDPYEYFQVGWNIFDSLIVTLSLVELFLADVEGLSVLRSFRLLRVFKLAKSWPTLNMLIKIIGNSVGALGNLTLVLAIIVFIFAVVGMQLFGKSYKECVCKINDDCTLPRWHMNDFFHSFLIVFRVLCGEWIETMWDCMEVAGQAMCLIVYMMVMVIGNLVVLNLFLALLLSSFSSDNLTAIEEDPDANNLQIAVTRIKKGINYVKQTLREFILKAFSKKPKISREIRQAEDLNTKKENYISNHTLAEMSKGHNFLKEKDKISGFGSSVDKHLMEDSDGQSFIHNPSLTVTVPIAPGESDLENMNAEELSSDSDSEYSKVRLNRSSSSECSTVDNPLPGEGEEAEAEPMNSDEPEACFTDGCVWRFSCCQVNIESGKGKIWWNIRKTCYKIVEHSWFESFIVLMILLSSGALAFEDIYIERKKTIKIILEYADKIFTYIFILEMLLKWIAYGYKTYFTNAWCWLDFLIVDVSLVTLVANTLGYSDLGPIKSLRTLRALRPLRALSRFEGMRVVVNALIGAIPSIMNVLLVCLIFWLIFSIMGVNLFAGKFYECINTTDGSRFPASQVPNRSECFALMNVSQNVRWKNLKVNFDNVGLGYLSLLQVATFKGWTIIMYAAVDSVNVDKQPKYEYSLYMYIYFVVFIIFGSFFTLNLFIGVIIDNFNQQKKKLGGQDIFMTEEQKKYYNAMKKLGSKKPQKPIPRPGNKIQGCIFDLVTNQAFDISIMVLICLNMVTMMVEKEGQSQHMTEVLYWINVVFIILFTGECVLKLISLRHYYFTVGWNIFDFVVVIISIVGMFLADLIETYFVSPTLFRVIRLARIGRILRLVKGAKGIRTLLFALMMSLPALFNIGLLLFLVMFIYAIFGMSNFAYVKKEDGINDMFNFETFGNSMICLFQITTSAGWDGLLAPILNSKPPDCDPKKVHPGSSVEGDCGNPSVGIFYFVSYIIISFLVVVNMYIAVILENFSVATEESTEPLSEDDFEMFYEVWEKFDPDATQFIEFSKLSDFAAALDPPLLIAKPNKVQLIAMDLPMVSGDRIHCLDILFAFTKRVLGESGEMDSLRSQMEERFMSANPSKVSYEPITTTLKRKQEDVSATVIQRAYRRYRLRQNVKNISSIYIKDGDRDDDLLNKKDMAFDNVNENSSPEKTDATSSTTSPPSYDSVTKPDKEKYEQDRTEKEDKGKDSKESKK
Sequence of hNav1.3 (Q9NY46 whole entry, looked up): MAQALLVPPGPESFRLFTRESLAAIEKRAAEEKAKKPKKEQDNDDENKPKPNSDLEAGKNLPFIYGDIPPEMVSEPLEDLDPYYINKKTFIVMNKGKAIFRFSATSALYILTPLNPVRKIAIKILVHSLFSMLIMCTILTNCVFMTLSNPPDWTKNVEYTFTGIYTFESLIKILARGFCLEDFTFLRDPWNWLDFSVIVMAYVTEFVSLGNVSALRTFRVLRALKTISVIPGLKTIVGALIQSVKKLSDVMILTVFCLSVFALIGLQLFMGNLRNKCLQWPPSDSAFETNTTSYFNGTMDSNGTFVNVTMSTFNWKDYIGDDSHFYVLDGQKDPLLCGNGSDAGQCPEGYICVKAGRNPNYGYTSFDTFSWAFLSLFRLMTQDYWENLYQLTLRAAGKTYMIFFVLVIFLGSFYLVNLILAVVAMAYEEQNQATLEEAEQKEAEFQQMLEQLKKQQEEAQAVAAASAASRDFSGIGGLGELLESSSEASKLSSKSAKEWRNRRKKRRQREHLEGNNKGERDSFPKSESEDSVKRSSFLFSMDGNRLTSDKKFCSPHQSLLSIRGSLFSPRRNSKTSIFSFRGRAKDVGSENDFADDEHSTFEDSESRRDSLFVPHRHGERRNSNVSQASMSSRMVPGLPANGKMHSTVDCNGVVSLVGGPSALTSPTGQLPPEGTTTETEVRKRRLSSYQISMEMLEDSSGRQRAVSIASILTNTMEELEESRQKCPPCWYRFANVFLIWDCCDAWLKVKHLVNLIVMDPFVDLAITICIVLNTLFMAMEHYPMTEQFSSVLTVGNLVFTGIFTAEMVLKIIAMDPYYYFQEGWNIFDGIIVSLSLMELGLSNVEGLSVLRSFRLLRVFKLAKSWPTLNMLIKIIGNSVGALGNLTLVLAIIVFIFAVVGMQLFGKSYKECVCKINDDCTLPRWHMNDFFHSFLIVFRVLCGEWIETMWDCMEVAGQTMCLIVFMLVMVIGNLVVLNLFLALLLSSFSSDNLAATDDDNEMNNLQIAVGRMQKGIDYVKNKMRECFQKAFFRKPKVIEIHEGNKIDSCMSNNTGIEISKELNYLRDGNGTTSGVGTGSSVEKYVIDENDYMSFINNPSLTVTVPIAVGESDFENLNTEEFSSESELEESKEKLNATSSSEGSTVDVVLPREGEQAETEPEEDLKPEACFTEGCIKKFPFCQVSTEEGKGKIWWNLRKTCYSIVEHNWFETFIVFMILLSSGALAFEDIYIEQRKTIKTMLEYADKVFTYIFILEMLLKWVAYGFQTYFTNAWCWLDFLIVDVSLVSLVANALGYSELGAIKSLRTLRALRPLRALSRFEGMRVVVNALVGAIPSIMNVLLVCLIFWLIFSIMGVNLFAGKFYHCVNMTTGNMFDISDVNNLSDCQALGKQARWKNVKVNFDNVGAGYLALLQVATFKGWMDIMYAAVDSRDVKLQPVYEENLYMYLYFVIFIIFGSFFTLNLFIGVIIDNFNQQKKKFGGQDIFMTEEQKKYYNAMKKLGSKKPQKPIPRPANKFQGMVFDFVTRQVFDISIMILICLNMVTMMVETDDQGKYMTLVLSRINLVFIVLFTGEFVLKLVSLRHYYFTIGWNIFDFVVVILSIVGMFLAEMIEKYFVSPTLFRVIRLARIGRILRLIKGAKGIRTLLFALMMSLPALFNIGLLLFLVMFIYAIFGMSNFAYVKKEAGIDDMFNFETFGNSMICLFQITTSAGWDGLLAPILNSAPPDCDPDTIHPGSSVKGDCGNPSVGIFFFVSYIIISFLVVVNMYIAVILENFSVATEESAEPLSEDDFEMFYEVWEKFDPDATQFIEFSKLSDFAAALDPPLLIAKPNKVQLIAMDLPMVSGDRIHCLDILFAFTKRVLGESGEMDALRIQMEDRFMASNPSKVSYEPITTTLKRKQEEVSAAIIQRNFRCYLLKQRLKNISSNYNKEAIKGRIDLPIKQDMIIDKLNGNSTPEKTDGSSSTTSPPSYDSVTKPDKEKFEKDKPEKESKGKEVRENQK

Take `CC[C@H](C)[C@@H]1NC(=O)[C@@H]2CSSC[C@@H]3NC(=O)[C@H](C(C)C)NC(=O)[C@H](CC(C)C)NC(=O)[C@H](CC(N)=O)NC(=O)[C@@H]4CCCN4C(=O)[C@H](CCCNC(=N)N)NC(=O)[C@H](CSSC[C@H](NC(=O)[C@@H](N)CC(=O)O)C(=O)N[C@@H](CC(C)C)C(=O)NCC(=O)N[C@@H](Cc4ccccc4)C(=O)N[C@@H](CCSC)C(=O)N[C@@H](CCCNC(=N)N)C(=O)N[C@@H](CCCCN)C(=O)N2)NC(=O)[C@H](CSSC[C@@H](C(=O)N[C@@H](CCCCN)C(=O)N[C@@H](Cc2c[nH]c4ccccc24)C(=O)N[C@@H](Cc2cccc4ccccc24)C(=O)N[C@@H](Cc2ccccc2)C(N)=O)NC(=O)[C@H](Cc2c[nH]c4ccccc24)NC(=O)[C@H](CCCCN)NC(=O)[C@H](Cc2c[nH]cn2)NC(=O)[C@H]([C@@H](C)O)NC(=O)[C@H](CCCNC(=N)N)NC(=O)[C@H](CO)NC3=O)NC(=O)[C@H](CCCCN)NC(=O)[C@H](CC(=O)O)NC(=O)[C@H](CC(N)=O)NC(=O)[C@H](CC(=O)O)NC(=O)[C@@H]2CCCN2C1=O` [compound 455] (H-DCLGFMRKCIPDNDKCCRPNLVCSRTHKWCKW[1Nal]F-NH2; disulfide 2-17, 9-23, 16-30): the IC50 on hNav1.5 (setting [1]) was greater than 5 µM; on hNav1.3 (use-dependent block, hNav1.3) it was 40 nM; at hNav1.7 (use-dependent block, hNav1.7) it was 20 nM.
In the case of `CC[C@H](C)[C@@H]1NC(=O)[C@@H]2CSSC[C@@H]3NC(=O)[C@H](C(C)C)NC(=O)[C@H](CC(C)C)NC(=O)[C@H](CC(N)=O)NC(=O)[C@@H]4CCCN4C(=O)[C@H](CCCNC(=N)N)NC(=O)[C@H](CSSC[C@H](NC(=O)[C@@H](N)CC(=O)O)C(=O)N[C@@H](CC(C)C)C(=O)NCC(=O)N[C@@H](C)C(=O)N[C@@H](Cc4ccccc4)C(=O)N[C@@H](CCCNC(=N)N)C(=O)N[C@@H](CCCCN)C(=O)N2)NC(=O)[C@H](CSSC[C@@H](C(=O)N[C@@H](CCCCN)C(=O)N[C@@H](Cc2ccc(O)cc2)C(=O)N[C@H](C(=O)N[C@@H](Cc2ccccc2)C(=O)O)C(C)C)NC(=O)[C@H](Cc2c[nH]c4ccccc24)NC(=O)[C@H](CC(=O)O)NC(=O)[C@H](Cc2c[nH]cn2)NC(=O)[C@H]([C@@H](C)O)NC(=O)[C@H](CCCNC(=N)N)NC(=O)[C@H](CO)NC3=O)NC(=O)[C@H](CCCCN)NC(=O)[C@H](CC(=O)O)NC(=O)[C@H](CC(N)=O)NC(=O)[C@H](CC(=O)O)NC(=O)[C@@H]2CCCN2C1=O` [compound 825] (H-DCLGAFRKCIPDNDKCCRPNLVCSRTHDWCKYVF-OH; disulfide 2-17, 9-23, 16-30), the IC50 at hNav1.5 (setting [1]) is greater than 5 µM; on hNav1.3 (use-dependent block, hNav1.3) it was greater than 5000 nM; at hNav1.7 (use-dependent block, hNav1.7), greater than 5000 nM.
For the molecule `CC[C@H](C)[C@@H]1NC(=O)[C@@H]2CSSC[C@@H]3NC(=O)[C@H](C(C)C)NC(=O)[C@H](CC(C)C)NC(=O)[C@H](CC(N)=O)NC(=O)CNC(=O)[C@H](CCCNC(=N)N)NC(=O)[C@H](CSSC[C@H](NC(=O)[C@@H](N)CC(=O)O)C(=O)N[C@@H](CC(C)C)C(=O)NCC(=O)N[C@@H](Cc4ccccc4)C(=O)N[C@@H](CCSC)C(=O)N[C@@H](CCCNC(=N)N)C(=O)N[C@@H](CCCCN)C(=O)N2)NC(=O)[C@H](CSSC[C@@H](C(=O)N[C@@H](CCCCN)C(=O)N[C@@H](Cc2ccc(O)cc2)C(=O)N[C@H](C(=O)N[C@@H](Cc2ccccc2)C(N)=O)C(C)C)NC(=O)[C@H](Cc2c[nH]c4ccccc24)NC(=O)[C@H](CCCCN)NC(=O)[C@H](Cc2c[nH]cn2)NC(=O)[C@H]([C@@H](C)O)NC(=O)[C@H](CCCNC(=N)N)NC(=O)[C@H](CO)NC3=O)NC(=O)[C@H](CCCCN)NC(=O)[C@H](CC(=O)O)NC(=O)[C@H](CC(N)=O)NC(=O)[C@H](CC(=O)O)NC(=O)[C@@H]2CCCN2C1=O` [compound 126] (H-DCLGFMRKCIPDNDKCCRGNLVCSRTHKWCKYVF-NH2; disulfide 2-17, 9-23, 16-30), the IC50 was found to be 11.9 µM at hNav1.5 (IonWorks Quattro, Use, read-out: IWQ Use Nav1.5); 110 nM on hNav1.3 (Use); 100 nM on hNav1.7 (Use).
`CC[C@H](C)[C@@H]1NC(=O)[C@@H]2CSSC[C@@H]3NC(=O)[C@H](C(C)C)NC(=O)[C@H](CC(C)C)NC(=O)[C@H](CC(N)=O)NC(=O)[C@@H]4CCCN4C(=O)[C@H](CCCNC(=N)N)NC(=O)[C@H](CSSC[C@H](NC(=O)[C@@H](N)CC(=O)O)C(=O)N[C@@H](CC(C)C)C(=O)NCC(=O)N[C@@H](C)C(=O)N[C@@H](CCSC)C(=O)N[C@@H](CCCNC(=N)N)C(=O)N[C@@H](CCCCN)C(=O)N2)NC(=O)[C@H](CSSC[C@@H](C(=O)N[C@@H](CCCCN)C(=O)N[C@@H](Cc2ccc(O)cc2)C(=O)N[C@@H](C)C(=O)N[C@@H](Cc2ccccc2)C(N)=O)NC(=O)[C@H](Cc2c[nH]c4ccccc24)NC(=O)[C@H](CCCCN)NC(=O)[C@H](Cc2c[nH]cn2)NC(=O)[C@H]([C@@H](C)O)NC(=O)[C@H](CCCNC(=N)N)NC(=O)[C@H](CO)NC3=O)NC(=O)[C@H](CCCCN)NC(=O)[C@H](CC(=O)O)NC(=O)[C@H](CC(N)=O)NC(=O)[C@H](CC(=O)O)NC(=O)[C@@H]2CCCN2C1=O` [compound 426] (H-DCLGAMRKCIPDNDKCCRPNLVCSRTHKWCKYAF-NH2; disulfide 2-17, 9-23, 16-30): the IC50 at hNav1.5 (setting [1]) was greater than 5 µM; at hNav1.3 (use-dependent block, hNav1.3), 1580 nM; on hNav1.7 (use-dependent block, hNav1.7), 580 nM.
In the case of `CC[C@H](C)[C@@H]1NC(=O)[C@@H]2CSSC[C@@H]3NC(=O)[C@H](C(C)C)NC(=O)[C@H](CC(C)C)NC(=O)[C@H](CC(N)=O)NC(=O)[C@@H]4CCCN4C(=O)[C@H](CCCNC(=N)N)NC(=O)[C@H](CSSC[C@H](NC(=O)[C@@H](N)CC(=O)O)C(=O)N[C@@H](CC(C)C)C(=O)NCC(=O)N[C@@H](Cc4ccccc4)C(=O)N[C@@H](CCSC)C(=O)N[C@@H](CCCNC(=N)N)C(=O)N[C@@H](CCCCN)C(=O)N2)NC(=O)[C@H](CSSC[C@@H](C(=O)N[C@@H](CCCCN)C(=O)N[C@@H](Cc2ccc(O)cc2)C(=O)N[C@@H](CC(C)C)C(=O)N[C@@H](Cc2ccccc2)C(N)=O)NC(=O)[C@H](Cc2c[nH]c4ccccc24)NC(=O)[C@H](CCCCN)NC(=O)[C@H](Cc2c[nH]cn2)NC(=O)[C@H]([C@@H](C)O)NC(=O)[C@H](CCCNC(=N)N)NC(=O)[C@H](CO)NC3=O)NC(=O)[C@H](CCCCN)NC(=O)[C@H](CC(=O)O)NC(=O)[C@H](CC(N)=O)NC(=O)[C@H](CC(=O)O)NC(=O)[C@@H]2CCCN2C1=O` [compound 400] (H-DCLGFMRKCIPDNDKCCRPNLVCSRTHKWCKYLF-NH2; disulfide 2-17, 9-23, 16-30), the IC50 is greater than 5 µM on hNav1.5 (IWQ Use Nav1.5 (μM)); 70 nM on hNav1.3 (Table 26, use, […]); 130 nM at hNav1.7 (Table 26, use, […]).
As to `CSCC[C@@H]1NC(=O)[C@H](C)NC(=O)CNC(=O)[C@H](CC(C)C)NC(=O)[C@@H](NC(=O)[C@@H](N)CC(=O)O)CSSC[C@@H]2NC(=O)[C@@H]3CSSC[C@@H](C(=O)N[C@@H](CCCCN)C(=O)N[C@@H](Cc4ccc(O)cc4)C(=O)N[C@H](C(=O)N[C@@H](Cc4ccccc4)C(N)=O)C(C)C)NC(=O)[C@H](Cc4c[nH]c5ccccc45)NC(=O)[C@H](CCCCN)NC(=O)[C@H](Cc4c[nH]cn4)NC(=O)[C@H]([C@@H](C)O)NC(=O)[C@H](CCCNC(=N)N)NC(=O)[C@H](CO)NC(=O)[C@H](CSSC[C@H](NC(=O)[C@H](CCCCN)NC(=O)[C@H](CCCNC(=N)N)NC1=O)C(=O)N[C@@H](CC(=O)O)C(=O)N1CCC[C@H]1C(=O)N[C@@H](CC(=O)O)C(=O)N[C@@H](CC(N)=O)C(=O)N[C@@H](CC(=O)O)C(=O)N[C@@H](CCCCN)C(=O)N3)NC(=O)[C@H](C(C)C)NC(=O)[C@H](CC(C)C)NC(=O)[C@H](CC(N)=O)NC(=O)[C@@H]1CCCN1C(=O)[C@H](CCCNC(=N)N)NC2=O` [compound 700] (H-DCLGAMRKCDPDNDKCCRPNLVCSRTHKWCKYVF-NH2; disulfide 2-17, 9-23, 16-30), the IC50 on hNav1.5 (IonWorks Quattro, use-dependent protocol, hNav1.5, read-out: IWQ Use Nav1.5) came to 35 µM; at hNav1.3 (use-dependent protocol, hNav1.3) it was 840 nM; on hNav1.7 (use-dependent protocol, hNav1.7) it was 740 nM.
As for `CC[C@H](C)[C@@H]1NC(=O)[C@@H]2CSSC[C@@H]3NC(=O)[C@H](C(C)C)NC(=O)[C@H](CC(C)C)NC(=O)[C@H](CC(N)=O)NC(=O)[C@@H]4CCCN4C(=O)[C@H](CCCNC(=N)N)NC(=O)[C@H](CSSC[C@H](NC(=O)[C@@H](N)CC(=O)O)C(=O)N[C@@H](CC(C)C)C(=O)NCC(=O)N[C@@H](Cc4ccccc4)C(=O)N[C@@H](CCSC)C(=O)N[C@@H](CCCNC(=N)N)C(=O)N[C@@H](CCCCN)C(=O)N2)NC(=O)[C@H](CSSC[C@@H](C(=O)N[C@@H](CCCCN)C(=O)N[C@@H](Cc2ccc(O)cc2)C(=O)N[C@@H](Cc2cn(C)c4ccccc24)C(=O)N[C@@H](Cc2ccccc2)C(N)=O)NC(=O)[C@H](Cc2c[nH]c4ccccc24)NC(=O)[C@H](CCCCN)NC(=O)[C@H](Cc2c[nH]cn2)NC(=O)[C@H]([C@@H](C)O)NC(=O)[C@H](CCCNC(=N)N)NC(=O)[C@H](CO)NC3=O)NC(=O)[C@H](CCCCN)NC(=O)[C@H](CC(=O)O)NC(=O)[C@H](CC(N)=O)NC(=O)[C@H](CC(=O)O)NC(=O)[C@@H]2CCCN2C1=O` [compound 250] (H-DCLGFMRKCIPDNDKCCRPNLVCSRTHKWCKY[Trp(1-Me)]F-NH2; disulfide 2-17, 9-23, 16-30), the IC50 at hNav1.5 (Table 26, IonWorks Quattro, use, […], read-out: IWQ Use Nav1.5) came to 5.35 µM; at hNav1.3 (Table 26, use, […]), 70 nM; on hNav1.7 (Table 26, use, […]) it was 90 nM.
